Results from patent US20120202801A1, “METHODS FOR TREATING BREAST CANCER” (priority 2009, published 2012).
Marks after values point to notes of the source that are not given here.

Tests used:
[1] = test system: human VEGF121 and VEGF165; assay: Intra-tumor and pathologic plasma human VEGF in HT1080 xenografts, Compound 1205 (studies #21, #23); assay type: in vivo, mice
Text: Experimental Design. HT1080 cells (5×10^6 cells/mice) were implanted subcutaneously into male athymic nude mice. Treatment with vehicle alone or Compound 1205 was initiated when the median tumor volume was approximately 311±88 mm^3. Table 7 and Table 9 (study design #21 and #23) provide the study design for assessing tumor and plasma pathologic VEGF concentrations—each group in each study included eight (8) mice. When the tumors in vehicle-treated mice had reached the target size of ˜1200 mm^3 for study #21 and ˜1500 mm^3 for study #23, all mice in the study were sacrificed, and excised tumors were homogenized in buffer containing protease inhibitors. Both intra-tumor and pathologic plasma human VEGF levels were measured using an ELISA that recognizes human VEGF121 and VEGF165. Intra-tumor VEGF levels were normalized to the total tumor protein concentration and pathologic plasma VEGF levels were expressed in pg/mL. Because smaller tumors produce less VEGF per mg of tumor protein, intra-tumor VEGF levels were normalized to tumor size.

HT1080 xenografts [2] = assay: HT1080 xenograft tumor growth, Compound 1205, 1330 and Compound #10 (studies 21-24b); assay type: in vivo, mice
Text: Experimental Design. HT1080 cells (5×10^6 cells/mouse) were implanted subcutaneously in male athymic nude mice. […] For comparison, Compound #10 was included in this study.

HT1080 cells = assay: Cell cycle analysis by propidium iodide flow cytometry in HT1080 cells (% cells in S-phase); assay type: cell-based, human; conditions: for % Cells In S-Phase: HT1080 cells, 100 nM, 18 hours, normoxic, DMSO control 17.3
Procedure: Experimental Design. […] After treatment, cells were trypsinized, and stained with propidium iodide (PI) dye to measure DNA content of individual cells by flow cytometry. Output comprised histograms showing relative DNA content in 10,000 cells.
While compounds which cause greater than 20% of the cells to accumulate in S-phase at 100 nM are considered active, a larger percentage of cells may be accumulated in S-phase at lower doses depending on the Compound, as shown in FIG. 12 for example.

HT1080 xenografts [3] = assay: Time course of tumor size and plasma human VEGF in HT1080 xenografts; assay type: in vivo, mice; conditions: by Day 1
Procedure: (§1) Experimental Design. HT1080 cells (5×10^6 cells/mouse) were implanted subcutaneously in male athymic nude mice.
Tumor size was measured by calipers immediately pre-treatment and at the time of sacrifice on Day 1, 2, or 3 (5 mice per group per day). At sacrifice, the plasma was collected for assay of pathologic human VEGF concentration using an ELISA that recognizes human VEGF121 and VEGF165 (as described in Section 9.1.1.1).

HT1080 xenografts [4] = assay: BrdU labeling of tumor cells from HT1080 xenografts in vivo; design: species or system mice; conditions: 1, 2, or 3 days of treatment
Procedure: as §1
The mice were sacrificed 3 hours later, and the tumors collected. A single cell suspension was prepared from the tumor cells. The cells were permeabilized and an antibody to BrdU was used to stain cells that had entered S phase during the labeling period. The proportion of cells actively synthesizing DNA was determined by cell sorting.

MCF-7p xenografts [5] = assay: Aggressive MCF-7p estrogen-sensitive breast cancer xenograft, combination with paclitaxel; assay type: in vivo, mice
Procedure: (§2) Experimental Design. Aggressively growing, estrogen-sensitive MCF 7 breast cancer cells (hereafter referred to as MCF-7p) were passaged in vivo prior to use to generate a more aggressive cell line. Tumors were excised from donor mice, passed through a sterile mesh, and suspended in 0.9% sodium chloride, and 20 mg of this suspension was mixed 1:1 with Matrigel™. These tumor fragments were implanted subcutaneously into female athymic nude mice bearing estrogen pellets (0.72 mg/pellet) that had been inserted 2 days previously. After 28 days, when the tumors had become established and grown to a substantial size (i.e., the mean tumor size had reached ˜430 mm^3), mice were divided into 4 groups, and treatment was administered as shown in Table 30.
Tumor size was measured by calipers at periodic intervals during the study. After tumors in a given group had reached an average size of ˜1500 mm^3, the mice in that group were sacrificed; after 72 days of treatment, any remaining groups were taken off study.

[6] = test system: hypoxia-inducible endogenous VEGF expression; assay: Hypoxia-inducible endogenous VEGF expression ELISA in HeLa cells, dose-response (EC50, Table 3); conditions: Homo sapiens, read-out: ELISA EC50 μM
MCF-7 xenografts = assay: MCF-7 estrogen-sensitive breast cancer xenograft, combination with tamoxifen; assay type: in vivo, mice
Procedure: Experimental Design. […] Estrogen pellets (0.72 mg/pellet) were implanted in the mice 9 days prior to cell implantation.
Tumor size was measured by calipers at periodic intervals during the study. After 42 days of treatment, the mice were sacrificed.

MCF-7p xenografts [7] = assay: Aggressive MCF-7p estrogen-sensitive breast cancer xenograft, combination with tamoxifen; assay type: in vivo, mice
Procedure: as §2, with “Aggressively” for “Experimental Design. Aggressively”, “˜435” for “˜430”, “34.” for “30.”
Tumor size was measured by calipers at periodic intervals during the study. When the mean tumor size in a group had reached 1500 mm^3, or after 72 days of treatment, the mice in the group were sacrificed.

[8] = test system: aromatase-overexpressing MCF-7 xenografts; assay: Aromatase-overexpressing MCF-7 breast cancer xenograft, combination with letrozole; assay type: in vivo, mice; conditions: for Mean % Inhibition of Tumor Size vs Vehicle at Day 42 / Proportion Cured: aromatase-overexpressing MCF-7 xenografts, nude mice
Procedure: Experimental Design. Aromatase-overexpressing, estrogen-sensitive MCF-7 cells (7.0×10^6 cells/mouse) were implanted subcutaneously in ovariectomized female athymic nude mice. Androstenedione pellets (6 mg/pellet) were implanted 1 day prior to cell implantation.
Tumor size was measured by calipers at periodic intervals during the study. When the individual tumor size in a mouse exceeded 1500 mm^3, or after 98 days of treatment, that mouse was sacrificed.

[9] = Paclitaxel alone, 10 mg/kg IV Days 2, 5, 9, 12, 15, nude mice
[10] = 42 days of treatment, combination = Compound #10 with tamoxifen
[11] = Tamoxifen alone, 10 mg/kg QD, nude mice
[12] = Tamoxifen alone, 8 mg/kg Oral QD, nude mice
[13] = Letrozole (high-dose), 30 μg/mouse Oral QD
[14] = Letrozole (low-dose), 10 μg/mouse Oral QD

O=C(Oc1ccc(Cl)cc1)N1CCc2c([nH]c3ccc(Cl)cc23)[C@@H]1c1ccc(OCC[C@H](O)CO)cc1 [Compound 1205]
inhibition of both tumor and pathologic plasma human VEGF levels ([1]; 0.5 or 3 mg/kg QD): more than 95%
Mean difference in human tumor VEGF (%) at Day 14 ([1]; Study #21, 3 mg/kg QD, 14 days): 98%**
Final mean terminal tumor size in treatment group (HT1080 xenografts [2]; Study 21: 3 mg/kg QD): 379 mm^3
Final mean terminal tumor size in treatment group (HT1080 xenografts [2]; Study 22: 0.5 mg/kg QD): 1750 mm^3
Difference vs. vehicle in median number of days to reach 1000 mm^3 (HT1080 xenografts [2]; Study 22: 3 mg/kg QD): 14** Days
Final mean terminal tumor size in treatment group (HT1080 xenografts [2]; Study 22: 3 mg/kg QD): 1840 mm^3
Difference vs. vehicle in median number of days to reach 1000 mm^3 (HT1080 xenografts [2]; Study 24a: 10 mg/kg QD): 14** Days
Mean difference in tumor growth rate at the Day that the vehicle-treated tumors taken off study (%) (HT1080 xenografts [2]; Study 24a: 10 mg/kg QD, Day 11): 76%**
Difference vs. vehicle in median number of days to reach 1000 mm^3 (HT1080 xenografts [2]; Study 24b: 0.3 mg/kg QD): 0.7 days
Final mean terminal tumor size in treatment group (HT1080 xenografts [2]; Study 24b: 0.3 mg/kg QD): 1540 mm^3

O=C(Oc1ccc(Cl)cc1)N1CCc2c([nH]c3ccc(Cl)cc23)C1c1ccc(OCCN2CCCCC2)cc1 (stereo not drawn)
% Cells In S-Phase (HT1080 cells): 16.8%

NC(Cn1ccc(=O)c(O)c1)C(=O)O (stereo not drawn) [mimosine, reference compound]
delay or prolongation of the cell cycle (HT1080 cells; same tumor cells, data not shown): does not delay or prolong the cell cycle or reduce VEGF production

COc1cccc2c1C(=O)c1c(O)c3c(c(O)c1C2=O)C[C@@](O)(C(=O)CO)C[C@@H]3O[C@H]1C[C@H](N)[C@H](O)[C@H](C)O1 [doxorubicin]
pathologic plasma human VEGF levels vs control (HT1080 xenografts [3]): numerically lower than in control animals
BrdU staining of tumor cells (proportion of cells in S phase) (HT1080 xenografts [4]): decreased the percentage of tumor cells staining with BrdU

CC(=O)O[C@H]1C(=O)[C@@]2(C)[C@H]([C@H](OC(=O)c3ccccc3)[C@]3(O)C[C@H](OC(=O)[C@H](O)[C@@H](NC(=O)c4ccccc4)c4ccccc4)C(C)=C1C3(C)C)[C@]1(OC(C)=O)CO[C@@H]1C[C@@H]2O [Paclitaxel, paclitaxel]
tumor growth (MCF-7p xenografts [5]): transient cytoreduction and a tumor growth delay
Mean % Inhibition of Tumor Size vs Vehicle at Day 26 (MCF-7p xenografts [5]; [9]): 78* %
Median Time to Tumor Size ≧1000 mm^3 (MCF-7p xenografts [5]; [9]): 47 days

O=C(Oc1ccc(Cl)cc1)N1CCc2c([nH]c3ccc(Cl)cc23)C1c1ccc(OCCN2CCOCC2)cc1 (stereo not drawn) [drawing 535]
% Cells In S-Phase (HT1080 cells): 16.4%

CC(=O)N1CCN(CCCOc2ccc(C3c4[nH]c5ccc(Cl)cc5c4CCN3C(=O)Oc3ccc(F)cc3)cc2)CC1 (stereo not drawn) [Compound 988]
EC50 [6]: < 0.008 µM

O=C(Oc1ccc(F)cc1)N1CCc2c([nH]c3ccc(Cl)cc23)C1c1ccc(OCC(O)CN2CCSCC2)cc1 (stereo not drawn) [Compound 925]
EC50 [6]: < 0.008 µM

O=C(Oc1ccc(Cl)cc1)N1CCc2c([nH]c3ccc(Cl)cc23)C1c1ccc(OCC(O)CN2CCOCC2)cc1 (stereo not drawn) [Compound 904]
EC50 [6]: < 0.008 µM

O=C(Oc1ccc(Cl)cc1)N1CCc2c([nH]c3ccc(Cl)cc23)C1c1ccc(OCCCCN2CCCC2)cc1 (stereo not drawn) [Compound 698]
EC50 [6]: 0.008 to 0.04 µM

COCCCNCCCCCCOc1ccc(C2c3[nH]c4ccc(Cl)cc4c3CCN2C(=O)Oc2ccc(Cl)cc2)cc1 (stereo not drawn) [Compound 785]
EC50 [6]: < 0.008 µM

CN1CCN(CCCCOc2ccc(C3c4[nH]c5ccc(Cl)cc5c4CCN3C(=O)Oc3ccc(F)cc3)cc2)CC1 (stereo not drawn) [Compound 740]
EC50 [6]: 0.04 to 0.2 µM

COCCN(CCCOc1ccc(C2c3[nH]c4ccc(Cl)cc4c3CCN2C(=O)Oc2ccc(Cl)cc2)cc1)CCOC (stereo not drawn) [Compound 916]
EC50 [6]: < 0.008 µM

O=C(Oc1ccc(Cl)cc1)Oc1ccc(C2c3[nH]c4ccc(Cl)cc4c3CCN2C(=O)Oc2ccc(Cl)cc2)cc1 (stereo not drawn) [Compound 578]
EC50 [6]: 0.04 to 0.2 µM

CNCC(O)COc1ccc(C2c3[nH]c4ccc(Cl)cc4c3CCN2C(=O)Oc2ccc(Cl)cc2)cc1 (stereo not drawn) [Compound 850]
EC50 [6]: 0.04 to 0.2 µM

Cc1ccc(OC(=O)N2CCc3c([nH]c4ccc(Cl)cc34)C2c2ccc(OCC3CCCN(C)C3)cc2)cc1 (stereo not drawn) [Compound 951]
EC50 [6]: 0.008 to 0.04 µM

CC/C(=C(\c1ccccc1)c1ccc(OCCN(C)C)cc1)c1ccccc1 [Tamoxifen, tamoxifen]
mice cured (%) (MCF-7 xenografts; [10]): 70%
mice cured (number) (MCF-7 xenografts; [10]): 7 of the 10
Mean % Inhibition of Tumor Size vs Vehicle at Day 42 (MCF-7 xenografts; [11]): 84%
Proportion Cured (MCF-7 xenografts; [11]): 70%
tumor regression and growth delay (MCF-7 xenografts; combination = Compound #10 with tamoxifen): tumor regression and growth delay were observed
tumor growth (MCF-7p xenografts [7]): only modestly delayed tumor growth
Mean % Inhibition of Tumor Size vs Vehicle at Day 26 (MCF-7p xenografts [7]; [12]): 33* %
Median Time to Tumor Size ≧1000 mm^3 (MCF-7p xenografts [7]; [12]): 24 days

CC(=O)N1CCN(CCCOc2ccc(C3c4[nH]c5ccc(Cl)cc5c4CCN3C(=O)Oc3ccc(Cl)cc3)cc2)CC1 (stereo not drawn) [Compound 903]
EC50 [6]: < 0.008 µM

O=C(Oc1ccc(F)cc1)N1CCc2c([nH]c3ccc(Cl)cc23)C1c1ccc(OCCCCCCN2CCCC2)cc1 (stereo not drawn) [Compound 773]
EC50 [6]: < 0.008 µM

O=C(CN1CCOCC1)Nc1ccc(C2c3[nH]c4ccc(Cl)cc4c3CCN2C(=O)Oc2ccc(Cl)cc2)cc1 (stereo not drawn) [Compound 454]
EC50 [6]: 0.008 to 0.04 µM

CC(C)NCCCCCCOc1ccc(C2c3[nH]c4ccc(Cl)cc4c3CCN2C(=O)Oc2ccc(F)cc2)cc1 (stereo not drawn) [Compound 774]
EC50 [6]: 0.008 to 0.04 µM

Cc1ccc(OC(=O)N2CCc3c([nH]c4ccc(Cl)cc34)[C@@H]2c2ccc(OCCC(O)CN3CCOCC3)cc2)cc1 (stereo partly drawn) [Compound 1302]
EC50 [6]: 0.04 to 0.2 µM

N#Cc1ccc(C(c2ccc(C#N)cc2)n2cncn2)cc1 [letrozole]
Mean % Inhibition of Tumor Size vs Vehicle at Day 42 [8, 13]: 79%
Proportion Cured [8, 13]: 20%
Mean % Inhibition of Tumor Size vs Vehicle at Day 42 [8, 14]: 72%
Proportion Cured [8, 14]: 10%
tumor growth ([8]; high-dose letrozole): tumor regression was observed
tumor growth ([8]; low-dose letrozole): tumor growth was prevented but tumor reduction was not observed

CC(C)NCCCCOc1ccc(C2c3[nH]c4ccc(Cl)cc4c3CCN2C(=O)Oc2ccc(Cl)cc2)cc1 (stereo not drawn) [Compound 700]
EC50 [6]: 0.008 to 0.04 µM
